Earlier results as cited in patent publication US4713385A, “Alkoxy and dialkoxyalkyl esters of dihydrolysergic acid and related compounds useful as 5HT receptor antagonists” (Eli Lilly and Company, priority 1985, dated 1987).

What was measured:
[1] = molecular target: vascular alpha adrenergic receptors
5HT2 receptors [2] = conditions: Garbrecht compounds; in words
[3] = molecular target: vascular histaminergic receptors
[4] = molecular target: vascular dopaminergic receptors
5HT2 receptors [5] = conditions: effect mediated by 5HT2 receptors; in words

SMILES: CC(O)C(C)OC(=O)[C@@H]1C[C@@H]2c3cccc4c3c(cn4C(C)C)C[C@H]2N(C)C1 (stereo partly drawn) [LY53857, 1-isopropyl-6-methyl-8β-(1-methyl-2-hydroxy)propoxycarbonyl-5R-ergoline]
- Kd ([1]; Cohen et al. J.P.E.T., 227, 327 (1983), read-out: Kdissoc (vascular alpha adrenergic receptors)): ~10 µM
- affinity for vascular alpha adrenergic receptors ([1]; in words): minimal affinity
- peripheral serotonin antagonist activity against 5HT2 receptors (5HT2 receptors [2]): most active peripheral serotonin antagonist
- Kd ([3]; Cohen et al. J.P.E.T., 227, 327 (1983), read-out: Kdissoc (vascular histaminergic receptors)): ~10 µM
- affinity for vascular histaminergic receptors ([3]; in words): minimal affinity
- Kd ([4]; Cohen et al. J.P.E.T., 227, 327 (1983), read-out: Kdissoc (vascular dopaminergic receptors)): ~10 µM
- affinity for vascular dopaminergic receptors ([4]; in words): minimal affinity
- antagonism of vascular contraction to serotonin (5HT2 receptors [5]): potent antagonist of vascular contraction to serotonin
